Source: US7323303B2, “Modified β-lactamases and uses thereof” (priority 2003, dated 2008)

What was measured:
[1] = target: T1, E166Cf (fluorescein-labeled E166C mutant of β-lactamase I) (Bacillus cereus, UniProt P00809, E185C); assay: Spectrophotometric substrate hydrolysis, steady-state kinetics; assay type: biochemical
T1 construct: made in house; host or cells: B. subtilis 1A304 (φ105MU331); then labelled chemically
T1 sequence (P00809 28-306 E185C): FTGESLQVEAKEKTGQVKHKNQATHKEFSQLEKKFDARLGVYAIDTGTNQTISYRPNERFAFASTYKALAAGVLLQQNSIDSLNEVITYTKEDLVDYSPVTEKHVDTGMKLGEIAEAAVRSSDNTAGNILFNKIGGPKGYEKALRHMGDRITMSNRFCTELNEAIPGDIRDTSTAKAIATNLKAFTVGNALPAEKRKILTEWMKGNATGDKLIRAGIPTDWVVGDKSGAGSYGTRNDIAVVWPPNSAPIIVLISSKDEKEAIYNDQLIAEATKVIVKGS
Description: The hydrolytic activities of the wild-type β-lactamase I, E166C and E166Cf mutants towards penicillin G, penicillin V and ampicillin (Sigma) were monitored by the spectrophotometric method. The spectrophotometric measurements were performed on a Perkin Elmer Lambda Bio20 UV/Vis spectrometer. Substrate hydrolysis was monitored at a fixed wavelength: 235 nm for ampicillin, 232 nm for penicillin G and penicillin V. The initial rate of substrate hydrolysis occurring within 5 min was determined in duplicate at each of 6 different substrate concentrations in 50 mM potassium phosphate buffer (pH 7.0) at 20° C. The initial rates determined were then treated as described in Reference 5 to calculate the Michaelis constants (Km) and turnover numbers (kcat) using non-linear regression analysis (equation 1):
[formula] where v is the initial rate of substrate hydrolysis, Vmax the maximum rate of reaction, [S] the initial substrate concentration, Km the Michaelis constant and kcat=Vmax/[Enzyme].
The measured steady-state kinetic parameters for hydrolysis of penicillin G, penicillin V and ampicillin by the wild-type β-lactamase I, E166C and E166Cf mutants are summarized in Table 1.
(§1) At high substrate concentration (1.0×10^−5 and 1.0×10^−4 M), the penicillin substrates rapidly occupy the active sites to form the ES complexes, thus switching on the fluorescence of the fluorescein labels instantaneously. […] This can be verified by the fact that the ‘plateau time’ (8 and 22 min for 1.0×10^−5 and 1.0×10^−4 M penicillin G respectively) is consistent with the ‘substrate hydrolysis time’ determined by spectrophotometric assays (7 and 20 min for 1.0×10^−5 and 1.0×10^−4 M penicillin G respectively). When most of the penicillin substrates have been hydrolyzed to carboxylic acids, the fluorescence signal of the labeled enzyme will decline subsequently.

E166Cf enzyme = target: T2, E166Cf enzyme (Bacillus cereus, UniProt P00809, E185C); assay: Time-resolved fluorescence of E166Cf enzyme with penicillins and cephalosporins; assay type: biochemical; details: E166Cf 1.2×10^−7 M
T2 construct: made in house; host or cells: B. subtilis 1A304 (φ105MU331); then labelled chemically
T2 sequence (P00809 28-306 E185C): T1 sequence (P00809 28-306 E185C)
Description: Fluorescence measurements of the E166Cf enzyme in the presence of penicillin G, penicillin V, ampicillin, cefuroxime, cefoxitin and moxalactam were performed on a Perkin Elmer LS50B spectrofluorometer. For time-resolved fluorescence measurement, excitation and emission wavelengths were set at 494 and 515 nm respectively. Both excitation and emission slit widths were set at 5 nm. All fluorescence measurements were performed at room temperature.
With penicillin G as substrate, the fluorescence signal of the E166Cf enzyme (1.2×10^−7 M) at 515 nm in 50 mM phosphate buffer (pH 7.0) increases as a function of the antibiotic concentration (FIG. 4). The time-resolved fluorescence signals of the E166Cf enzyme at 515 nm were also measured with various concentrations of penicillin G (FIG. 5). At low antibiotic concentration (1.0×10^−7 and 1.0×10^−6 M), the fluorescence intensity of the E166Cf enzyme increases gradually and then declines. At high antibiotic concentration (1.0×10^−5 and 1.0×10^−4 M), the fluorescence signal increases instantaneously and levels off to a plateau. The fluorescence signal stays at the plateau for a certain length of time and then declines afterwards. Similar results were obtained with penicillin V and ampicillin (FIGS. 6 and 7).
With cefuroxime, cefoxitin and moxalactam as substrates, the fluorescence intensities of the E166Cf enzyme (1.2×10^−7 M) at 515 nm in 50 mM phosphate buffer (pH 7.0) also increase as a function of antibiotic concentration (FIGS. 8 to 10).
as §1

[2] = E166Cf, 50 mM potassium phosphate buffer pH 7.0, 20° C.

SMILES: CC1(C)S[C@@H]2[C@H](NC(=O)Cc3ccccc3)C(=O)N2[C@H]1C(=O)O [Penicillin G, penicillin G]
- substrate hydrolysis time determined by spectrophotometric assays ([1]; 1.0×10^−4 M antibiotic): 20 min
- substrate hydrolysis time determined by spectrophotometric assays ([1]; 1.0×10^−5 M antibiotic): 7 min
- Km [1, 2]: 213 ± 11 µM
- kcat [1, 2]: 5.28 ± 0.09 s⁻¹
- plateau time of fluorescence signal (E166Cf enzyme; 1.0×10^−4 M antibiotic): 22 min
- plateau time of fluorescence signal (E166Cf enzyme; 1.0×10^−5 M antibiotic): 8 min
